Experimental data as given in paper PMC6094399, “New tools for carbohydrate sulfation analysis: heparan sulfate 2-O-sulfotransferase (HS2ST) is a target for small-molecule protein kinase inhibitors” (Biochemical Journal, 2018).
“And” between values parts separate entries of the source, which are not always exact repeats. Equal values may be shown once. “Also recorded” adds a separate entry of the source. Read-outs that look alike come from different tables or passages of the source.

Experiments:
HS2ST [1] = molecular target: T1, HS2ST (Gallus gallus, UniProt Q76KB1); experiment: DSF thermal shift/stability assay of MBP-HS2ST; type: binding, Chicken; details: 5 μM MBP-HS2ST; for thermal stabilisation of HS2ST (DSF): result in words
T1 construct: made in house; host or cells: Escherichia coli Rosetta-gami (DE3), modified pMAL-c2x plasmid
T1 sequence (Q76KB1 69-356): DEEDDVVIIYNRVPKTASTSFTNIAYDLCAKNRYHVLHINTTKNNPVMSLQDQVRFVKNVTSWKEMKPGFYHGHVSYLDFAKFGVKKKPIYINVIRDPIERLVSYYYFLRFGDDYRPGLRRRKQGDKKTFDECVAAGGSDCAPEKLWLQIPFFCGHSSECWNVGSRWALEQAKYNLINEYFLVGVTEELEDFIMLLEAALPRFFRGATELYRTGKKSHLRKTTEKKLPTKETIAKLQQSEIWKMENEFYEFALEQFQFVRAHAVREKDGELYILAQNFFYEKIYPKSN

HS2ST [2] = molecular target: T1, HS2ST; experiment: Microfluidic mobility shift sulfation assay with fluorescent hexasaccharide substrate; type: biochemical, Chicken; details: for mode of HS2ST inhibition: increasing concentration of PAPS, 10 μM PAP, 0.5 mM CoA or 20 μM rottlerin; for HS2ST inhibition: concentrations as high as 400 μM (Supplementary Figure S9B); for HS2ST inhibition (dose-response): 1 μM PAPS, 15 min at 20°C (Figure 4C)
Text: (§1) N-sulfated, fluorescein-tagged hexasaccharide glycan substrate (GlcNS–GlcA–GlcNS–IdoA–GlcNS–GlcA-fluorescein, where S = sulfation) containing either L-IdoA or D-GlcA residues at the third residue from the reducing end (to which a linker and the fluorophore were conjugated) was both purchased from GLYCAN therapeutics (www.glycantherapeutics.com). […] Chemically modified heparins were generated through a published procedure, whereas oligosaccharides from Iduron were generated enzymatically. Non-radioactive microfluidic mobility shift carbohydrate sulfation assays were optimised in solution with a 12-sipper chip coated with CR8 reagent and a PerkinElmer EZ Reader II system using EDTA-based separation buffer and real-time kinetic evaluation of substrate sulfation. Pressure and voltage settings were adjusted manually to afford optimal separation of the sulfated product and non-sulfated hexasaccharide substrate, with a sample (sip) volume of 20 nl, and total assay times appropriate for the experiment. […] The degree of oligosaccharide sulfation was directly calculated using the EZ Reader software by measuring the sulfo oligosaccharide : oligosaccharide ratio at each time-point. The activity of HS2ST enzymes in the presence of biochemicals and small-molecule inhibitors was quantified in ‘kinetic mode’ by monitoring the amount of sulfated glycan generated over the assay time, relative to control assay with no additional inhibitor molecule (DMSO control). […] Km and IC50 values were determined by nonlinear regression analysis with GraphPad Prism software.
The PKIS chemical library (Supplementary Figure S6, designated as SB, GSK or GW compound sets) comprises 367 largely ATP-competitive kinase inhibitors, covering 31 chemotypes originally designed to inhibit 24 distinct protein kinase targets. Compounds were stored frozen as a 10 mM stock in DMSO. The library is characterised as highly drug-like (∼70% with molecular mass <500 Da and clogP values <5). […] For inhibition assays, competition assays or individual IC50 value determination, a compound range was prepared by serial dilution in DMSO and added directly into the assay to the appropriate final concentration. All control experiments contained 4% (v/v) DMSO, which had essentially no effect on HS2ST activity. Individual chemicals and glycan derivatives were prepared and evaluated using NMR, HPLC, DSF or microfluidics-based assay protocols, as described above.

[3] = tested on: catalytic subunit of cAMP-dependent protein kinase (PKAc); experiment: DSF thermal shift of recombinant PKAc; type: binding; details: 5 μM PKAc
MBP = experiment: DSF thermal shift control with MBP; type: binding; details: 0.5 mM PAPS, 10 μM heparin or 5 mM maltose; result in words
HS2ST [4] = details: read-out: Km for PAPS; HS2ST using desulfated heparin as a substrate; cited from earlier work
[5] = tested on: GlcNAc-6-sulfotransferase NodH; details: read-out: Km for PAPS; PAPS-dependent GlcNAc-6-sulfotransferase NodH; cited from earlier work
[6] = tested on: hormone iodotyrosine sulfotransferases; details: read-out: Km for PAPS; human hormone iodotyrosine sulfotransferases; cited from earlier work
tyrosyl sulfotransferase = details: read-out: Km for PAPS; tissue-purified tyrosyl sulfotransferase; cited from earlier work
[7] = substrate: Nc1ncnc2c1ncn2C1OC(COP(=O)(O)OS(=O)(=O)O)C(OP(=O)(O)O)C1O; experiment: Microfluidic mobility shift sulfation assay with fluorescent hexasaccharide substrate; type: biochemical, Chicken; details: other: 20 nM HS2ST, fluorescein-labelled IdoA hexasaccharide substrate; pH 7.4
Text: as §1, with “sulfation.” for “sulfation. Pressure and voltage settings were adjusted manually to afford optimal separation of the sulfated product and non-sulfated hexasaccharide substrate, with a sample (sip) volume of 20 nl, and total assay times appropriate for the experiment.”, “software. […]” for “software.”

[8] = 20 nM HS2ST, 10 μM PAPS (Figure 3D), read-out: IC50
[9] = positive controls of the PKIS enzyme re-screen (Figure 4B, Supplementary Figures 7 and 8), read-out: IC50
[10] = nucleotides, 20 nM HS2ST, 10 μM PAPS, absence of MgCl2, 15 min, read-out: IC50

[Mg+2] [Mg^2+]
ΔTm (HS2ST [1]; DSF): ~3 °C
HS2ST enzyme activity (HS2ST [2]; high (>1 mM) concentrations of Mg2+ ions, relative to buffer controls, result in words): concentration-dependent increases

Nc1ncnc2c1ncn2[C@@H]1O[C@H](COP(=O)(O)O)[C@@H](O)[C@H]1O [AMP, adenosine 5′-monophosphate]
thermal stabilisation of HS2ST (DSF) (HS2ST [1]): not

Cc1ccc(C(=O)Nc2ccc(S(=O)(=O)O)c3cc(S(=O)(=O)O)cc(S(=O)(=O)O)c23)cc1NC(=O)c1cccc(NC(=O)Nc2cccc(C(=O)Nc3cc(C(=O)Nc4ccc(S(=O)(=O)O)c5cc(S(=O)(=O)O)cc(S(=O)(=O)O)c45)ccc3C)c2)c1 [suramin]
IC50 (HS2ST [2]; [8]): 40 ± 1 nM
IC50 (HS2ST [2]; [9]): ~20 nM

Mg-ATP
ΔTm ([3]; 0.5 mM ATP and 10 mM MgCl2): > 4 °C

OC[C@H]1O[C@H](O[C@H]2[C@H](O)[C@@H](O)C(O)O[C@@H]2CO)[C@H](O)[C@@H](O)[C@@H]1O (mixture of isomers) [maltose]
thermal stabilisation of MBP (DSF) (MBP): characteristic stabilisation profile

Nc1ncnc2c1ncn2C1OC(COP(=O)(O)O)C(OP(=O)(O)O)C1O (stereo not drawn) [PAP, adenosine 3′–5′-diphosphate]
thermal stabilisation of HS2ST (DSF) (HS2ST [1]): did not abrogate HS2ST binding
mode of HS2ST inhibition (HS2ST [2]): PAPS-competitive mode of inhibition
IC50 (HS2ST [2]; [10]): ~2000 nM

CC(=O)c1c(O)c(C)c(O)c(Cc2c(O)c3c(c(C(=O)/C=C/c4ccccc4)c2O)OC(C)(C)C=C3)c1O [rottlerin]
IC50 (HS2ST [2]; IC50, 20 nM HS2ST, 10 μM PAPS (Figure 3D)): 6400 nM
IC50 (HS2ST [2]; IC50, positive control of the PKIS enzyme re-screen (Figure 4B, Supplementary Figures 7 and 8)): ~8000 nM
mode of HS2ST inhibition (HS2ST [2]): competitive mode of HS2ST inhibition

CC(C)(COP(=O)(O)OP(=O)(O)OC[C@H]1O[C@@H](n2cnc3c(N)ncnc32)[C@H](O)[C@@H]1OP(=O)(O)O)[C@@H](O)C(=O)NCCC(=O)NCCS [CoA, coenzyme A]
thermal stabilisation of HS2ST (DSF) (HS2ST [1]): clearly induced thermal stabilisation
mode of HS2ST inhibition (HS2ST [2]): PAPS-competitive mode of inhibition
IC50 (HS2ST [2]; [10]): 65000 nM

CC(=O)SCCNC(=O)CCNC(=O)[C@H](O)C(C)(C)COP(=O)(O)OP(=O)(O)OC[C@H]1O[C@@H](n2cnc3c(N)ncnc32)[C@H](O)[C@@H]1OP(=O)(O)O [acetyl CoA]
thermal stabilisation of HS2ST (DSF) (HS2ST [1]): clearly induced thermal stabilisation

CCCS(=O)(=O)Nc1ccc(F)c(C(=O)c2c[nH]c3ncc(-c4ccc(Cl)cc4)cc23)c1F [vemurafenib]
HS2ST inhibition (HS2ST [2]; result in words): unable to inhibit HS2ST

COC(=O)c1ccc2c(c1)C(=Cc1cc(Br)c(O)c(Br)c1)C(=O)N2 [GW405841X]
HS2ST inhibition (dose-response) (HS2ST [2]; 20 nM HS2ST, result in words): did not inhibit HS2ST at any concentration tested

CC(C)(COP(=O)(O)OP(=O)(O)OC[C@H]1O[C@@H](n2cnc3c(N)ncnc32)[C@H](O)[C@@H]1O)[C@@H](O)C(=O)NCCC(=O)NCCS [dephospho-CoA, 3′-dephosphoCoA]
thermal stabilisation of HS2ST (DSF) (HS2ST [1]): abolished this effect

CC(C)(C)c1nc(-c2cccc(NS(=O)(=O)c3c(F)cccc3F)c2F)c(-c2ccnc(N)n2)s1 [dabrafenib]
HS2ST inhibition (HS2ST [2]; result in words): unable to inhibit HS2ST

Nc1ncnc2c1ncn2[C@@H]1O[C@H](COP(=O)(O)OP(=O)(O)O)[C@@H](O)[C@H]1O [ADP, adenosine 5′-diphosphate]
thermal stabilisation of HS2ST (DSF) (HS2ST [1]): effective at protecting HS2ST from thermal denaturation

CN[C@@H]1C[C@H]2O[C@@](C)([C@@H]1OC)n1c3ccccc3c3c4c(c5c6ccccc6n2c5c31)C(=O)NC4 [staurosporine]
thermal stabilisation of HS2ST (DSF) (HS2ST [1]): neither the pan-kinase inhibitor staurosporine nor several FDA-approved tyrosine kinase inhibitors caused thermal stabilisation

Nc1ncnc2c1ncn2[C@@H]1O[C@H](COP(=O)(O)OP(=O)(O)OP(=O)(O)O)[C@@H](O)[C@H]1O [ATP, adenosine 5′-triphosphate]
IC50 (HS2ST [2]; [10]): 466000 nM

O=C1Nc2ccc(I)cc2C1=Cc1cc(Br)c(O)c(Br)c1 [GW305074]
HS2ST inhibition (dose-response) (HS2ST [2]; 20 nM HS2ST, result in words): mid-micromolar HS2ST inhibitor

Nc1nc2c(ncn2[C@@H]2O[C@H](COP(=O)(O)OP(=O)(O)OP(=O)(O)O)[C@@H](O)[C@H]2O)c(=O)[nH]1 [GTP, guanosine 5′-triphosphate]
thermal stabilisation of HS2ST (DSF) (HS2ST [1]): effective at protecting HS2ST from thermal denaturation

O=C(O)C1=CC(=C(c2ccc(O)c(C(=O)O)c2)c2ccc(O)c(C(=O)O)c2)C=CC1=O [aurintricarboxylate, aurintricarboxylic acid]
IC50 (HS2ST [2]; [8]): 123 ± 7 nM
IC50 (HS2ST [2]; [9]): ~90 nM

Nc1ncnc2c1ncn2C1OC(COP(=O)(O)OS(=O)(=O)O)C(OP(=O)(O)O)C1O (stereo not drawn) [PAPS, adenosine 3′-phosphate 5′-phosphosulfate]
Km (HS2ST [4]): 18.5 µM
thermal stabilisation of HS2ST (DSF) (HS2ST [1]): positively shifted (stabilised); also recorded: dose-dependent stabilisation
thermal stabilisation of PKAc (DSF) ([3]; 0.5 mM PAPS, result in words): did not stabilise
Km [5]: ~4.3 µM
Km [6]: 1500 nM
thermal stabilisation of MBP (DSF) (MBP): neither PAPS nor heparin induced stabilisation
Km (tyrosyl sulfotransferase): 10 µM

B1: HS2ST (Gallus gallus) (protein)
chain: T1 sequence (Q76KB1 69-356)
notes: made in house; host or cells: Escherichia coli Rosetta-gami (DE3), modified pMAL-c2x plasmid
Km [7]: 1.03 ± 0.2 µM and 1 µM and 1.0 µM
